The test system of experiment [1] is binding sites for phosphorylated compounds in membrane preparation from rat brains. Briefly: Displacement of tritiated D-myo-inositol-1,3,4,5-tetraphosphate (IP4) from rat brain membrane preparation. The conditions noted are these: rat brain plasma membrane fragments saturated with tritiated IP4; remaining radioactivity after addition of compound and washing. An excerpt:
A membrane preparation was obtained from rat brains in a way suitable to provide membrane fragments from plasma membranes. From earlier studies these membrane preparations are known to comprise binding sites for phosphorylated compounds. The physiological role of these binding sites are to regulate for example vascular leakage and oedema formation in the body. The degree of binding of a specific compound to these binding sites predicts the efficiency to counteract vascular leakage in vivo.
The membrane preparation was first saturated with a tritiated control compound. The control compound was D-myo-inositol-1,3,4,5-tetraphosphate (IP4). Addition of a further compound having, increased binding properties, compared to the control compound, will result in a replacement of the control compound and thus in a reduction of the radioactivity in the sample.
The 1,5-anhydro-D-arabinitol-2,3,4-trisphosphate pentakis (cyclohexylammonium) salt obtained in Example 2 was added to a membrane preparation as described above. After washing, the radioactivity was 30% compared to the control compound (IP4), thus showing a significant binding to the preparation.

Experiment [2] addresses membrane preparation from rat hearts (binding sites of D-myo-inositol-1,2,6-triphosphate). Briefly: Displacement of tritiated D-myo-inositol-1,2,6-triphosphate from rat heart membrane preparation. The conditions noted are these: rat heart membranes, 60 minutes in ice, 50 mM HEPES pH 7.4. As to the method: A membrane preparation for binding experiments was prepared at 4° C. Remaining blood was removed from fresh rats hearts (approx. 25 g) and the hearts were minced on chilled plates and blended thoroughly with 20 volumes (v/w) of 0.32M sucrose. The mixture was homogenized using a glass homogenizer followed by centrifugation at 800 g for 10 minutes. The supernatant was thereafter recentrifuged at 21000 g for 20 minutes. The resulting pellets were suspended in 20 volumes of ice cold water before homogenization and centrifugation. The supernatant was collected by pipetting followed by recentrifugation. […]
The assay mixtures were incubated for 60 minutes in ice and binding reactions were terminated by centrifugation for 5 minutes. The surface of the pellets were washed with 1 ml of iced 50 mM HEPES buffer (pH 7.4) before measuring the incorporated radioactivity by means of a scintillation counter.
An IC50 value can be determined by calculation of the replacement ratio of the tritiated reference compound at different concentrations of the specific compound. This value represents the concentration needed to replace half the amount of the tritiated reference compound and is expressed as log (conc. of compound). […] Following the above described procedure the binding properties of 1,5-anhydro-D-arabinitol-2,3,4-trisphosphate was determined. […]

The results in this text go back to patent publication US5654280A, “Pharmaceutical composition” (Perstorp AB, priority 1989, dated 1997).

Counter-ions that a name gives are not always drawn.

Consider `O=P(O)(O)OC1[C@H](OP(=O)(O)O)COC[C@H]1OP(=O)(O)O` [Example 2, 1,5-anhydro-D-arabinitol-2,3,4-trisphosphate pentakis (cyclohexylammonium) salt], for which the “radioactivity after washing compared to the control compound (IP4)” value in experiment [1] worked out at 30%.
Consider `O=P(O)(O)OC1[C@H](OP(=O)(O)O)COC[C@H]1OP(=O)(O)O` [1,5-anhydro-D-arabinitol-2,3,4-trisphosphate], for which the “IC50 value (concentration needed to replace half the amount of the tritiated reference compound)” value in experiment [2] is reported as -6.9 log (conc. of compound).
